Test results taken from BindingDB's records for doi:10.1021/jm034141y (Merck Research Laboratories, 2003).

Test: In vitro inhibition of purified Carboxypeptidase B (CPB) by ECL assay

## O=C(O)C(Cc1ccccc1)c1cnc[nH]1 (configuration not stated) [2-(1H-Imidazol-4-yl)-3-phenyl-propionic acid]
  IC50: > 100000 nM

## Nc1ccc(CC(C(=O)O)c2cn(Cc3ccccc3)cn2)cn1 (configuration not stated) [3-(6-Amino-pyridin-3-yl)-2-(1-benzyl-1H-imidazol-4-yl)-propionic acid]
  IC50: 21 nM
